Some test systems named below: COLO 205; SF-539; HOP-92; LOX IMVI; IGROV-1; MDA-N; KM12; SF-268; UACC-257; NCI-H460; Hs-578T; NCI/ADR-RES; SK-OV-3; A549; CAKI-1; DU-145; U-251; NCI-H226; OVCAR-8; MCF7.
What all share (assay): growth of human tumour cells (NCI), 48 h

SMILES strings stand for the structures.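 Method: 48-hour compound exposure of cells in 96-well plates, five concentrations, linear interpolation of endpoints. Here, GI50 denotes the concentration required for 50% inhibition of growth.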 Activity calls are given as the source filed them. Rule as the data show it: active = GI50 up to about 1.1 µM and inactive = higher.

Take `N#C[C@H](C(=O)c1ccccc1F)c1nc2ccccc2s1`: the GI50 with COLO 205 was 23.7 µM (inactive); in the test with SF-539, 20.7 µM (inactive); with HOP-92, 48.1 µM (inactive); in the test on LOX IMVI it was 33 µM (inactive); in the test with IGROV-1, 17.8 µM (inactive); in the test on MDA-N, 38.3 µM (inactive). Besides, the GI50 is 11 µM (inactive) in the test on KM12; 26.9 µM (inactive) in the test with SF-268; 66.1 µM (inactive) in the test on UACC-257; 28.9 µM (inactive) with NCI-H460; 15.1 µM (inactive) with Hs-578T; 26.9 µM (inactive) in the test with NCI/ADR-RES. In addition, the GI50 is 21.1 µM (inactive) in the test with SK-OV-3; 29 µM (inactive) with A549; 32.5 µM (inactive) in the test on CAKI-1; 42.6 µM (inactive) with DU-145; 33.3 µM (inactive) with U-251; 21.9 µM (inactive) in the test on NCI-H226. Besides, the GI50 in the test with OVCAR-8 was 25.1 µM (inactive).
For the compound `O=C1Nc2ccc(Br)cc2/C1=N/Nc1ccccc1[N+](=O)[O-]`, the GI50 with COLO 205 was 12.1 µM (inactive); with SF-539, > 100 µM (inactive); with LOX IMVI, 15.2 µM (inactive); with IGROV-1 it was 0.261 µM (active); in the test on MDA-N it was 17 µM (inactive); in the test on KM12, 8.2 µM (inactive). The GI50 in the test with SF-268 is 20.2 µM (inactive); in the test on UACC-257, 13.3 µM (inactive); with NCI-H460 it was 9.73 µM (inactive); with Hs-578T it was 16.1 µM (inactive); with NCI/ADR-RES, 15.8 µM (inactive); with SK-OV-3 it was 24 µM (inactive). The GI50 in the test on A549 is 9.29 µM (inactive); in the test on CAKI-1 it was 14.2 µM (inactive); in the test on MCF7 it was 20.8 µM (inactive); in the test on DU-145, 12.2 µM (inactive); in the test with U-251 it was 35.4 µM (inactive); with NCI-H226, 13.6 µM (inactive). Further, in the test on OVCAR-8, the GI50 is 17.2 µM (inactive).
With `Cc1ccc(O)c(-c2cscn2)c1`, the GI50 with COLO 205 is 12.5 µM (inactive); with SF-539, 30.8 µM (inactive); in the test with HOP-92 it was 43.7 µM (inactive); in the test with LOX IMVI it was 27.7 µM (inactive); in the test on IGROV-1 it was 55.7 µM (inactive); with MDA-N it was 40.2 µM (inactive). The GI50 in the test with UACC-257 was 73.1 µM (inactive); in the test with NCI-H460, 28.5 µM (inactive); in the test on Hs-578T, 32.9 µM (inactive); in the test on NCI/ADR-RES it was 51.9 µM (inactive); with SK-OV-3, 32.6 µM (inactive); with A549, 29.7 µM (inactive). The GI50 in the test on CAKI-1 was 39.3 µM (inactive); in the test on MCF7, 39.9 µM (inactive); with OVCAR-8 it was 42.9 µM (inactive).
Take `COc1nc2sc3c(c2c(=O)n1CCCSSCCCn1c(OC)nc2sc4c(c2c1=O)CCCC4)CCCC3`: the GI50 in the test with COLO 205, in the test on SF-539, with HOP-92, in the test with LOX IMVI, in the test with IGROV-1 and in the test with MDA-N was > 100 µM (inactive) in each case. Also, the GI50 with KM12, in the test with UACC-257, in the test on NCI/ADR-RES, with SK-OV-3, in the test on A549 and in the test with CAKI-1 was > 100 µM (inactive) each time. The GI50 in the test on MCF7, in the test with DU-145, in the test on U-251, in the test with NCI-H226 and with OVCAR-8 was > 100 µM (inactive) each time.
`O=P1(O)c2ccccc2CCc2ccccc21`: the GI50 in the test on COLO 205, in the test with SF-539, in the test on HOP-92, with LOX IMVI, in the test with IGROV-1 and with MDA-N was > 100 µM (inactive) throughout. Also, the GI50 in the test with KM12, in the test with SF-268, in the test on UACC-257, in the test on Hs-578T, with SK-OV-3 and in the test with A549 was > 100 µM (inactive) in each case. Also, the GI50 with CAKI-1, with MCF7, in the test on DU-145, in the test on NCI-H226 and with OVCAR-8 was > 100 µM (inactive) throughout.
Regarding `C=C(C)C1CC[C@@](C)(O)[C@H](C#N)C1` (stereo partly specified), the GI50 in the test on COLO 205, in the test with SF-539, in the test on LOX IMVI, with MDA-N, with KM12 and in the test on SF-268 was > 100 µM (inactive) in each case. Besides, the GI50 with UACC-257, in the test with NCI-H460, in the test with Hs-578T, in the test with SK-OV-3, with A549 and in the test with CAKI-1 was > 100 µM (inactive) throughout. The GI50 in the test on MCF7, in the test with DU-145, in the test with U-251, in the test on NCI-H226 and in the test with OVCAR-8 was > 100 µM (inactive) each time.
Regarding `CN(C)C12C=CC=CC3=C(c4ccccc4)C(c4ccccc4)=C(c4ccccc4)C31c1ccccc1C2` (stereo unspecified), the GI50 in the test with COLO 205, in the test on SF-539, in the test with IGROV-1, in the test on MDA-N, in the test with KM12 and with SF-268 was > 100 µM (inactive) throughout. The GI50 in the test on UACC-257, in the test on NCI-H460, in the test with Hs-578T, in the test with NCI/ADR-RES, in the test on SK-OV-3 and in the test on A549 was > 100 µM (inactive) each time. The GI50 with MCF7, in the test with U-251 and in the test on OVCAR-8 was > 100 µM (inactive) throughout.
With `COc1ccc(/N=C2\C(=N/c3ccc(OC)cc3)N(c3ccc(N(C)C)cc3)C(=S)N2c2ccc(OC)cc2)cc1`, the GI50 in the test on COLO 205 is > 100 µM (inactive); in the test with SF-539 it was 0.184 µM (active); with HOP-92, > 100 µM (inactive); with LOX IMVI it was > 100 µM (inactive); with IGROV-1, > 100 µM (inactive); with MDA-N it was > 100 µM (inactive). Besides, the GI50 in the test with KM12 was > 100 µM (inactive); with SF-268, > 100 µM (inactive); with UACC-257, > 38 µM (inactive); in the test with NCI-H460 it was 10.9 µM (inactive); in the test with NCI/ADR-RES, > 100 µM (inactive); in the test with SK-OV-3, > 100 µM (inactive). Further, the GI50 was > 100 µM (inactive) in the test with A549; > 100 µM (inactive) with MCF7; > 100 µM (inactive) in the test on DU-145; > 100 µM (inactive) in the test on NCI-H226; > 37.2 µM (inactive) in the test with OVCAR-8.
With `CCOC(=O)/C=C(/C(=O)OCC)n1cc(Cl)c(=O)n(CC(=O)OCC)c1=O`, the GI50 in the test with COLO 205 is 0.787 µM (active); with SF-539, 5.04 µM (inactive); in the test with HOP-92, 5.15 µM (inactive); in the test on LOX IMVI, 4.37 µM (inactive); in the test with IGROV-1 it was 4.76 µM (inactive); in the test with MDA-N it was 5.81 µM (inactive). Also, the GI50 in the test on KM12 is > 25 µM (inactive); with SF-268 it was 7.05 µM (inactive); with UACC-257, 4.94 µM (inactive); with NCI-H460, 9.02 µM (inactive); with NCI/ADR-RES, 8.95 µM (inactive); in the test on SK-OV-3, > 25 µM (inactive). For the same compound, the GI50 was 6.41 µM (inactive) in the test on A549; 3.94 µM (inactive) in the test with CAKI-1; 22.9 µM (inactive) with MCF7; 4.61 µM (inactive) with DU-145; 5.83 µM (inactive) in the test with U-251; > 25 µM (inactive) with NCI-H226. In the test with OVCAR-8, the GI50 was 4.53 µM (inactive).
In the case of `Cn1c(C(O)C2(c3cccnc3)SCCCS2)cc2ccccc21` (stereo unspecified), the GI50 was > 100 µM (inactive) in the test with COLO 205; > 100 µM (inactive) with HOP-92; > 100 µM (inactive) with LOX IMVI; 30 µM (inactive) in the test with IGROV-1; > 100 µM (inactive) with MDA-N; 71.4 µM (inactive) in the test on KM12. The GI50 in the test on SF-268 is > 100 µM (inactive); in the test on UACC-257, 53.3 µM (inactive); in the test with NCI-H460, 99.3 µM (inactive); in the test on NCI/ADR-RES, > 100 µM (inactive); in the test with SK-OV-3, > 100 µM (inactive); in the test with A549, > 100 µM (inactive). In addition, the GI50 in the test on CAKI-1 is > 100 µM (inactive); in the test on MCF7, 59.2 µM (inactive); in the test with DU-145 it was > 100 µM (inactive); in the test with U-251, > 100 µM (inactive); with NCI-H226, > 100 µM (inactive); with OVCAR-8 it was > 100 µM (inactive).
With `C=CCc1c(C)nc(C)nc1N/N=C/C=C/c1ccccc1`, the GI50 was 24.8 µM (inactive) in the test on COLO 205; 32.1 µM (inactive) in the test on SF-539; 40.5 µM (inactive) in the test with HOP-92; 39.1 µM (inactive) in the test on LOX IMVI; 31.4 µM (inactive) with IGROV-1; 29.2 µM (inactive) with MDA-N. For the same compound, the GI50 is 44.1 µM (inactive) in the test on SF-268; 14.4 µM (inactive) in the test on UACC-257; 22.4 µM (inactive) in the test on NCI-H460; 48.9 µM (inactive) in the test on Hs-578T; 23.9 µM (inactive) in the test on NCI/ADR-RES; 55.5 µM (inactive) in the test on SK-OV-3. Moreover, the GI50 is 37.4 µM (inactive) in the test with A549; 58.6 µM (inactive) in the test with CAKI-1; 23.6 µM (inactive) in the test with MCF7; 23.6 µM (inactive) with U-251; > 100 µM (inactive) in the test on NCI-H226; 32.2 µM (inactive) in the test on OVCAR-8.

For the origin of these results see ChEMBL document CHEMBL1201862, “PubChem BioAssay data set” (2004).
